Experimental data published in US20100063085A1, “METHOD OF TREATING LEARNING IMPAIRMENT IN DOWN'S SYNDROME SUBJECTS” (University Court of The University of Dundee, priority 2008, published 2010).
Like-named read-outs stand apart in the source and are kept apart here.

How the values were obtained:
Assay in all cases: biochemical
ERK8 = molecular target: T1, ERK8 (Homo sapiens, UniProt Q8TD08); conditions: read-out: ERK8 activity as percentage of control without inhibitor
T1 sequence (Q8TD08 1-544): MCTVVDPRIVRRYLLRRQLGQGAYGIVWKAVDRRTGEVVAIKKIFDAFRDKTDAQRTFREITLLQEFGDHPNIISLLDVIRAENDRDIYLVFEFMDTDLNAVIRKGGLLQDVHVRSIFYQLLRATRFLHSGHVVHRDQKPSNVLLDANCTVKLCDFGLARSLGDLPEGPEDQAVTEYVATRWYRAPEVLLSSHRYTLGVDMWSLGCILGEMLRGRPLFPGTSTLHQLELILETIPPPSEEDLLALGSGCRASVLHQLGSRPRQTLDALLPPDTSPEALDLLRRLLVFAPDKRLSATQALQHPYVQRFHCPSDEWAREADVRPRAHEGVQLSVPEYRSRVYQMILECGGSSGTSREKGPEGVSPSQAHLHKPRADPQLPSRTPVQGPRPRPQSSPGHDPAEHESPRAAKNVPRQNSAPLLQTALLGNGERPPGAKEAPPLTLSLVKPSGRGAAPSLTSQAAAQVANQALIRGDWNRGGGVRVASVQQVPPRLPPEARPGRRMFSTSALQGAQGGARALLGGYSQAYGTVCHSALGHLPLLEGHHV
Procedure: (§1) All assays (25.5 μl) were carried out at room temperature (21° C.) and were linear with respect to time and enzyme concentrations under the conditions used. Assays were performed for 30 minutes except assays for LCK and PKB which were performed for 15 minutes using Multidrop Micro reagent dispensers (Thermo Electron Corporation, Waltham, Mass. 02454, USA) in a 96-well format. The concentration of […] [γ-^33P] ATP (800 cpm/pmol) in the assays was one of three concentrations (5, 20 or 50 μM) in order to be at or below Km for ATP for the enzyme. Assays were initiated with MgATP and stopped by addition of 5 μl of 0.5M orthophosphoric acid. Assays were then harvested onto P81 filterplates using a unifilter harvester (PerkinElmer, Boston, Mass. 02118, USA), with a wash buffer of 50 mM orthophosphoric acid. Filterplates were then air dried overnight. 10 μl of Microscint O was added per well prior to counting for radioactivity.
(§2) The following kinases were assayed against the substrates indicated. Aurora B was assayed against the substrate peptide […] (300 μM), ERK8 and MST-2 were both assayed against MBP (0.33 mg/ml). IKKβ was assayed against the substrate peptide […] (300 μM), JNK3 was assayed against 3 μM ATF2[19-96]. MAPKAP-K3 and PKD1 were both assayed against […] (30 μM), MARK3 was assayed against CHKtide ([…]) substrate peptide (300 μM). MNK1 and MNK2 were both assayed against eIF4E protein (0.5 mg/ml). NEK7 was assayed against […] (300 μM), PIM2 was assayed against […] (300 μM), ΔPH PKBβ-S474D was assayed against Crosstide (30 μM), PLK1 was assayed against […] (300 μM). PRK2 was assayed against Long S6 peptide, […] (30 μM), RSK2 was assayed against […] (30 μM), SRC was assayed against cdc2 peptide, […], (300 μM) and SRPK1 was assayed against peptide […] (300 μM). All enzymes were diluted in 50 mM Tris/HCl pH 7.5, 0.1 mM EGTA, 1 mg/ml BSA, 0.1% β-mercaptoethanol buffer and assayed in an incubation containing 50 mM Tris/HCl pH7.5, 0.1 mM EGTA, 0.1% β-mercaptoethanol, CAMK-1 (5-20 mU) diluted in 50 mM Tris/HCl pH 7.5, 0.1 mM EGTA, 1 mg/ml BSA, 0.1% β-mercaptoethanol is assayed against substrate peptide […] in an incubation containing 50 mM Tris/HCl pH 7.5, 0.1 mM EGTA, 0.5 mM CaCl2, 0.3 μM calmodulin, 0.1% β-mereaptoethanol, 300 μM substrate peptide, 10 mM magnesium acetate and 0.05 mM [^33P-γ-ATP] (500-1000 cpm/pmole). EF2K (5-20 mU) diluted in 50 mM Hepes pH 6.6, 0.1% β-mercaptoethanol, 1 mg/ml BSA is assayed against a substrate peptide […] in an incubation containing 50 mM Hepes pH 6.6, 0.2 mM CaCl2, 0.3 μM Calmodulin, 0.05% b-mercaptoethanol, 300 μM substrate peptide, 10 mM magnesium acetate and 0.05 mM [^33P-γ-ATP] (500-1000 cpm/pmole).

EFK2 = molecular target: T2, EFK2 (Homo sapiens, UniProt O00418); conditions: read-out: EFK2 activity as percentage of control without inhibitor
T2 sequence (O00418 1-725): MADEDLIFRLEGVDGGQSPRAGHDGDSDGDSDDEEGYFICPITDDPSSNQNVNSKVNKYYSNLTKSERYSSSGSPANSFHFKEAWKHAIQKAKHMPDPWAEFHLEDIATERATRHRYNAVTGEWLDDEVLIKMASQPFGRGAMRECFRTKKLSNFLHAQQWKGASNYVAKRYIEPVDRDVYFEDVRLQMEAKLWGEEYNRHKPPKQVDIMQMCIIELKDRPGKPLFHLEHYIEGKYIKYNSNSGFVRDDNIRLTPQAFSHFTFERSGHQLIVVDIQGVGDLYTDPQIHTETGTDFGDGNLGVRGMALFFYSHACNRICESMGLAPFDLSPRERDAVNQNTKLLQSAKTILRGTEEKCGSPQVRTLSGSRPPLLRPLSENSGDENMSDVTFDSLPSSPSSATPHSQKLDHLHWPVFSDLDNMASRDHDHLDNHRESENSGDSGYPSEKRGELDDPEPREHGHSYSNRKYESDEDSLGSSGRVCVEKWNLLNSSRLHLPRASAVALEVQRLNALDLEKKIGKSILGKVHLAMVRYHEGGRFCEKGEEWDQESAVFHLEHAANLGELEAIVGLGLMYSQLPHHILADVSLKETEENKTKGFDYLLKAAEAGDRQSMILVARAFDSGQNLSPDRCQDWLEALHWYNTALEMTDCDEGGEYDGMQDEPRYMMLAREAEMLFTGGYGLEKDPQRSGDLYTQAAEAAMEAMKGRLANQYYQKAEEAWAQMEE
Procedure: as §1, §2

NEK7 = NEK7 (Homo sapiens, UniProt Q8TDX7); conditions: read-out: NEK7 activity as percentage of control without inhibitor
Procedure: as §1, §2

SRPK1 = SRPK1 (Homo sapiens, UniProt Q96SB4); conditions: read-out: SRPK1 activity as percentage of control without inhibitor
Procedure: as §1, §2

CAMK-1 = CAMK-1 (Homo sapiens, UniProt Q14012); conditions: read-out: CAMK-1 activity as percentage of control without inhibitor
Procedure: as §1, §2

SRPK1, sequence (Q96SB4 whole entry, species assumed): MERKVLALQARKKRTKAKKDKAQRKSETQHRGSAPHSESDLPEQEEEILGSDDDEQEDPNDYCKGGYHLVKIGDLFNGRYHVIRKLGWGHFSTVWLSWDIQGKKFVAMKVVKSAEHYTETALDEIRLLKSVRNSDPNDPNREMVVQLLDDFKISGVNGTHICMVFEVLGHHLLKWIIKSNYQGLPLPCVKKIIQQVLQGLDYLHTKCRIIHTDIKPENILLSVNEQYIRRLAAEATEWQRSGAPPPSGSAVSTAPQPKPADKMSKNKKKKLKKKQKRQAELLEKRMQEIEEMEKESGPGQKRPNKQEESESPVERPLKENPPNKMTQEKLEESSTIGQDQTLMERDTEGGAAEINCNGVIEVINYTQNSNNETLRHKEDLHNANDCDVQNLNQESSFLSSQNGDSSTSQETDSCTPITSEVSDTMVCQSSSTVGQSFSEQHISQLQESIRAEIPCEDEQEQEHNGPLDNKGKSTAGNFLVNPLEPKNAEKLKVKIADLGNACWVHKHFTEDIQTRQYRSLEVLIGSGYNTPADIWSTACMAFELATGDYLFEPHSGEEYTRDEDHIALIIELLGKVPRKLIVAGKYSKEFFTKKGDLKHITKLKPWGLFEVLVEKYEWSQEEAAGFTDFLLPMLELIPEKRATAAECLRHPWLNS
NEK7, sequence (Q8TDX7 whole entry, species assumed): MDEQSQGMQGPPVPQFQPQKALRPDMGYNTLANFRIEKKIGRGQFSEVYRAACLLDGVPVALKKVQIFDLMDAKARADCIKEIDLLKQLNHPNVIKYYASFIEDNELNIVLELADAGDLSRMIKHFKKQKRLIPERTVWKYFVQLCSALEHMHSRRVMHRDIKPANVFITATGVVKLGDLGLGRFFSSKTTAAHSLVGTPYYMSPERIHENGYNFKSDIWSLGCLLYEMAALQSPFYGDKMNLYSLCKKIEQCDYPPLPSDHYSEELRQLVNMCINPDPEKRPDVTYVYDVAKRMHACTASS

COc1ccc2c3c([nH]c2c1)C(C)=NCC3 [Harmaline]
remaining activity at 1 µM (ERK8; inhibitor 1 μM): 58%
remaining activity at 10 µM (ERK8; inhibitor 10 μM): 21%
remaining activity at 1 µM (EFK2; inhibitor 1 μM): 106%
remaining activity at 10 µM (EFK2; inhibitor 10 μM): 100%
remaining activity at 1 µM (NEK7; inhibitor 1 μM): 95%
remaining activity at 10 µM (NEK7; inhibitor 10 μM): 115%
remaining activity at 1 µM (SRPK1; inhibitor 1 μM): 104%
remaining activity at 10 µM (SRPK1; inhibitor 10 μM): 97%
remaining activity at 1 µM (CAMK-1; inhibitor 1 μM): 99%
remaining activity at 10 µM (CAMK-1; inhibitor 10 μM): 110%

CC1=NCCc2c1[nH]c1cc(O)ccc21 [Harmalol]
remaining activity at 1 µM (ERK8; inhibitor 1 μM): 41%
remaining activity at 10 µM (ERK8; inhibitor 10 μM): 21%
remaining activity at 1 µM (EFK2; inhibitor 1 μM): 97%
remaining activity at 10 µM (EFK2; inhibitor 10 μM): 85%
remaining activity at 1 µM (NEK7; inhibitor 1 μM): 83%
remaining activity at 10 µM (NEK7; inhibitor 10 μM): 56%
remaining activity at 1 µM (SRPK1; inhibitor 1 μM): 88%
remaining activity at 10 µM (SRPK1; inhibitor 10 μM): 72%
remaining activity at 1 µM (CAMK-1; inhibitor 1 μM): 93%
remaining activity at 10 µM (CAMK-1; inhibitor 10 μM): 60%

COc1ccc2c(c1)[nH]c1c(C)nccc12 [Harmine]
remaining activity at 1 µM (ERK8): 25%
remaining activity at 10 µM (ERK8): 19%
remaining activity at 1 µM (EFK2): 102%
remaining activity at 10 µM (EFK2): 101%
remaining activity at 1 µM (NEK7): 90%
remaining activity at 10 µM (NEK7): 92%
remaining activity at 1 µM (SRPK1): 86%
remaining activity at 10 µM (SRPK1): 83%
remaining activity at 1 µM (CAMK-1): 107%
remaining activity at 10 µM (CAMK-1): 94%
